Experiments:
human recombinant HDAC6 = target: T1, human recombinant HDAC6 (Homo sapiens, UniProt Q9UBN7); experiment: HDAC6 enzyme activity inhibition assay (HDAC Fluorimetric Drug Discovery Kit); type: biochemical; conditions: 30° C. 60 minutes
T1 construct: purchased Calbiochem 382180
T1 sequence (Q9UBN7 1-1215): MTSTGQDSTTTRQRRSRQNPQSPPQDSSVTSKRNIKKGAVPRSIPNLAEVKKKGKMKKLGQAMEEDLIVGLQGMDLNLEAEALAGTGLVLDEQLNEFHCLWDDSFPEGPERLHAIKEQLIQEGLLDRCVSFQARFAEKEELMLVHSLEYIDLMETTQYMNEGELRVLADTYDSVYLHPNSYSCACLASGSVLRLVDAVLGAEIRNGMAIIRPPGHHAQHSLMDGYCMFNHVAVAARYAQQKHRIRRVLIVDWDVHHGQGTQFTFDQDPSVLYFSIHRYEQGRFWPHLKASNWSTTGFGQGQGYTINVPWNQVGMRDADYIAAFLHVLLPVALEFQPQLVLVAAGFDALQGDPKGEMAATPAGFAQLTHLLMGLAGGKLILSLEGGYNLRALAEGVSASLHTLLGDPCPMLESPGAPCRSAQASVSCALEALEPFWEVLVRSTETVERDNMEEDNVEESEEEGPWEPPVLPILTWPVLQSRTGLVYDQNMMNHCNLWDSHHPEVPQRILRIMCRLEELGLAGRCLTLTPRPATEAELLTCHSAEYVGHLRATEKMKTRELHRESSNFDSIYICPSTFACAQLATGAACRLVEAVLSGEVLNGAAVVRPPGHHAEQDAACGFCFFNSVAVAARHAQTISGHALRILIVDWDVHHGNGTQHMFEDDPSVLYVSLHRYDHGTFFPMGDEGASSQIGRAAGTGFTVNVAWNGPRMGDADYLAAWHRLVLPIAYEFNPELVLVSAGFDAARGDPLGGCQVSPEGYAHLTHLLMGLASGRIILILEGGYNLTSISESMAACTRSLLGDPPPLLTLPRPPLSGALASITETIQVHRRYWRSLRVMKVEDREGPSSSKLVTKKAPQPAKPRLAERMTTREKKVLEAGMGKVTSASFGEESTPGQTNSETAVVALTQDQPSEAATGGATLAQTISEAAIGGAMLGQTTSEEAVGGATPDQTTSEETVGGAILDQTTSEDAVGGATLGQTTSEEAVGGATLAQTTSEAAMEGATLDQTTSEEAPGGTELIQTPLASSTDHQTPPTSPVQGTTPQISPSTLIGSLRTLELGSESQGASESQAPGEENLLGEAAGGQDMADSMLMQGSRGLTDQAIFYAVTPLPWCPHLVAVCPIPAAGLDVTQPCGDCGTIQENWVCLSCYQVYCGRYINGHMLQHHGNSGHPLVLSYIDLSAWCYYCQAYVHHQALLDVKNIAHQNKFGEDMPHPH
Procedure: (§1) In order to examine the HDAC6 selectivity of the compounds of formula I of the present invention by HDAC1 and HDAC6 enzymatic activity inhibition assays, an experiment was performed using a conventional substance as a control.
(§2) HDAC enzyme activity was measured using a HDAC Fluorimetric Drug Discovery Kit (BML-AK511, 516, Enzo Life Science). For the HDAC1 enzyme activity test, human recombinant HDAC1 (BML-SE456) was used as an enzyme source, and Fluor de Lys®-“SIRT1 (BNL-KI177) was used as a substrate. A 5-fold dilution of the compound was seeded into a 96-well plate, and then 0.3 μg of the enzyme and 10 μM of the substrate were added to each well of the plate and allowed to react at 30° C. for 60 minutes. Then, Fluor de Lys®-Developer II (BML-KI176) was added thereto and allowed to react for 30 minutes, after which the fluorescence value (Ex 360, Em 460) was measured using a multi-plate reader (Flexstation 3, Molecular Device). The HDAC6 enzyme was tested using human recombinant HDAC6 (382180) (Calbiochem) according to the same protocol as the HDAC1 enzyme activity test method. Based on the resulting values, each IC50 value was calculated using GraphPad Prism4.0 program.

human recombinant HDAC1 = target: T2, human recombinant HDAC1 (Homo sapiens, UniProt Q13547); experiment: HDAC1 enzyme activity inhibition assay (HDAC Fluorimetric Drug Discovery Kit); type: biochemical; conditions: human recombinant HDAC1, 10 μM substrate, 30° C. 60 minutes
T2 construct: purchased Enzo Life Science BML-SE456
T2 sequence (Q13547 whole entry): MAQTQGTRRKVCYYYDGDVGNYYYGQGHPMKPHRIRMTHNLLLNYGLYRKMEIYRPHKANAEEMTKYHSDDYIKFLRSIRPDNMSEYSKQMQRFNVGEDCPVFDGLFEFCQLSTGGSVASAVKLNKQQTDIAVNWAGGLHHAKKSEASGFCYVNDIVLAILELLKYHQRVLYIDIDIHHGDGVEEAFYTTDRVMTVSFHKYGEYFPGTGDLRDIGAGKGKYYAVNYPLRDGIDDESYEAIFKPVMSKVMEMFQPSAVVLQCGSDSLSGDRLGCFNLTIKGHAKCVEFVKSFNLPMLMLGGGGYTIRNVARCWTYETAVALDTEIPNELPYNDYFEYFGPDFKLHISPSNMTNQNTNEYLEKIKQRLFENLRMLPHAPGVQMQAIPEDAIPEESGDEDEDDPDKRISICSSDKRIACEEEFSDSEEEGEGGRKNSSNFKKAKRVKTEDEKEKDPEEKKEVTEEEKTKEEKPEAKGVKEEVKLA
Procedure: as §1, §2

SMILES	IC50 (human recombinant HDAC6) [µM]	IC50 (human recombinant HDAC1) [µM]
FC(F)c1nnc(-c2cnc(NC3(c4cccc(Cl)c4)CCC3)nc2)o1 [Compound 1615, N-(1-(3-chlorophenyl)cyclobutyl)-5-(5-(difluoromethyl)-1,3,4-oxadiazol-2-yl)pyrimidin-2-amine]	0.022	> 10
Cc1ccccc1C1(Nc2ncc(-c3nnc(C(F)(F)F)o3)cn2)CCC1 [Compound 1672, N-(1-(o-tolyl)cyclobutyl)-5-(5-(trifluoromethyl)-1,3,4-oxadiazol-2-yl)pyrimidin-2-amine]	0.234	> 10
CN1CCC(c2ccc(C3(Nc4ncc(-c5nnc(C(F)F)o5)cn4)CCC3)cc2)CC1 [Compound 2035, 5-(5-(difluoromethyl)-1,3,4-oxadiazol-2-yl)-N-(1-(4-(1-methylpiperidin-4-yl)phenyl)cyclobutyl)pyrimidin-2-amine]	0.367	> 10
FC(F)(F)c1nnc(-c2cnc(NC3(c4ccccc4Cl)CCC3)nc2)o1 [Compound 1617, N-(1-(2-chlorophenyl)cyclobutyl)-5-(5-(trifluoromethyl)-1,3,4-oxadiazol-2-yl)pyrimidin-2-amine]	0.211	> 10
FC(F)(F)c1cccc(C2(Nc3ncc(-c4nnc(C(F)(F)F)o4)cn3)CCC2)c1 [Compound 1670, 5-(5-(trifluoromethyl)-1,3,4-oxadiazol-2-yl)-N-(1-(3-(trifluoromethyl)phenyl)cyclobutyl)pyrimidin-2-amine]	0.596	> 10
FC(F)c1nnc(-c2cnc(NC3(c4ccccc4)CCCCC3)nc2)o1 [Compound 1581, 5-(5-(difluoromethyl)-1,3,4-oxadiazol-2-yl)-N-(1-phenylcyclohexyl)pyrimidin-2-amine]	0.135	> 10
FC(F)c1nnc(-c2cnc(NC3(c4c(Cl)cccc4Cl)CCC3)nc2)o1 [Compound 1838, N-(1-(2,6-dichlorophenyl)cyclobutyl)-5-(5-(difluoromethyl)-1,3,4-oxadiazol-2-yl)pyrimidin-2-amine]	0.11	> 10
FC(F)c1nnc(-c2cnc(NC3(c4ccccc4C(F)(F)F)CCC3)nc2)o1 [Compound 2042, 5-(5-(difluoromethyl)-1,3,4-oxadiazol-2-yl)-N-(1-(2-(trifluoromethyl)phenyl)cyclobutyl)pyrimidin-2-amine]	0.173	> 10
FC(F)c1nnc(-c2cnc(NC3(c4ccccn4)CCC3)nc2)o1 [Compound 1640, 5-(5-(difluoromethyl)-1,3,4-oxadiazol-2-yl)-N-(1-(pyridin-2-yl)cyclobutyl)pyrimidin-2-amine]	0.028	> 10
Fc1cc(C2(Nc3ncc(-c4nnc(C(F)F)o4)cn3)CC2)ccc1Cl [Compound 2054, N-(1-(4-chloro-3-fluorophenyl)cyclopropyl)-5-(5-(difluoromethyl)-1,3,4-oxadiazol-2-yl)pyrimidin-2-amine]	0.083	> 10
FC(F)(F)c1nnc(-c2cnc(NC3(c4cccc(Cl)c4Cl)CCC3)nc2)o1 [Compound 1833, N-(1-(2,3-dichlorophenyl)cyclobutyl)-5-(5-(trifluoromethyl)-1,3,4-oxadiazol-2-yl)pyrimidin-2-amine]	0.75	> 10
FC(F)c1nnc(-c2cnc(NC3(c4ccccc4)CCNCC3)nc2)o1 [Compound 1678, 5-(5-(difluoromethyl)-1,3,4-oxadiazol-2-yl)-N-(4-phenylpiperidin-4-yl)pyrimidin-2-amine]	0.225	> 10
FC(F)c1nnc(-c2cnc(NC3(c4cccc(C5CCN(C6COC6)CC5)c4)CCC3)nc2)o1 [Compound 2060, 5-(5-(difluoromethyl)-1,3,4-oxadiazol-2-yl)-N-(1-(3-(1-(oxetan-3-yl)piperidin-4-yl)phenyl)cyclobutyl)pyrimidin-2-amine]	0.221	> 10
FC(F)(F)c1nnc(-c2cnc(NC3(c4ccccn4)CCC3)nc2)o1 [Compound 1641, N-(1-(pyridin-2-yl)cyclobutyl)-5-(5-(trifluoromethyl)-1,3,4-oxadiazol-2-yl)pyrimidin-2-amine]	0.058	> 10

The remaining molecules from weak to strong by IC50 (human recombinant HDAC6), led by results:

IC50 (human recombinant HDAC6) [µM]	IC50 (human recombinant HDAC1) [µM]	SMILES
1.96	> 10	FC(F)(F)c1nnc(-c2cnc(NC3(c4ccc(Cl)c(Cl)c4)CCC3)nc2)o1 [Compound 1835, N-(1-(3,4-dichlorophenyl)cyclobutyl)-5-(5-(trifluoromethyl)-1,3,4-oxadiazol-2-yl)pyrimidin-2-amine]
0.519	> 10	FC(F)(F)c1nnc(-c2cnc(NC3(c4ccc(Cl)cc4)CC3)nc2)o1 [Compound 2053, N-(1-(4-chlorophenyl)cyclopropyl)-5-(5-(trifluoromethyl)-1,3,4-oxadiazol-2-yl)pyrimidin-2-amine]
0.478	> 10	CCN1CCC(c2ccc(C3(Nc4ncc(-c5nnc(C(F)F)o5)cn4)CCC3)cc2)CC1 [Compound 2036, 5-(5-(difluoromethyl)-1,3,4-oxadiazol-2-yl)-N-(1-(4-(1-ethylpiperidin-4-yl)phenyl)cyclobutyl)pyrimidin-2-amine]
0.455	> 10	Fc1ccc(C2(Nc3ncc(-c4nnc(C(F)(F)F)o4)cn3)CCC2)cc1 [Compound 1612, N-(1-(4-fluorophenyl)cyclobutyl)-5-(5-(trifluoromethyl)-1,3,4-oxadiazol-2-yl)pyrimidin-2-amine]
0.267	> 10	O=C(OCc1ccccc1)N1CCC(Nc2ncc(-c3nnc(C(F)F)o3)cn2)(c2ccccc2)CC1 [Compound 1677, Benzyl 4-((5-(5-(difluoromethyl)-1,3,4-oxadiazol-2-yl)pyrimidin-2-yl)amino)-4-phenylpiperidine-1-carboxylate]
0.1	> 10	FC(F)c1nnc(-c2cnc(NC3(c4cccc(Cl)c4Cl)CCC3)nc2)o1 [Compound 1832, N-(1-(2,3-dichlorophenyl)cyclobutyl)-5-(5-(difluoromethyl)-1,3,4-oxadiazol-2-yl)pyrimidin-2-amine]
0.083	> 10	FC(F)c1nnc(-c2cnc(NC3(c4ccc5c(c4)OCO5)CCC3)nc2)o1 [Compound 1820, N-(1-(benzo[d][1,3]dioxol-5-yl)cyclobutyl)-5-(5-(difluoromethyl)-1,3,4-oxadiazol-2-yl)pyrimidin-2-amine]
0.05	> 10	COc1ccc(C2(Nc3ncc(-c4nnc(C(F)F)o4)cn3)CCC2)cc1 [Compound 1603, 5-(5-(difluoromethyl)-1,3,4-oxadiazol-2-yl)-N-(1-(4-methoxyphenyl)cyclobutyl)pyrimidin-2-amine]
0.048	> 10	FC(F)c1nnc(-c2cnc(NC3(c4ccccc4)CC3)nc2)o1 [Compound 1524, 5-(5-(difluoromethyl)-1,3,4-oxadiazol-2-yl)-N-(1-phenylcyclopropyl)pyrimidin-2-amine]
0.032	> 10	COc1ccccc1C1(Nc2ncc(-c3nnc(C(F)F)o3)cn2)CC1 [Compound 2047, 5-(5-(difluoromethyl)-1,3,4-oxadiazol-2-yl)-N-(1-(2-methoxyphenyl)cyclopropyl)pyrimidin-2-amine]
0.025	> 10	Cc1cccc(C2(Nc3ncc(-c4nnc(C(F)F)o4)cn3)CCC2)c1 [Compound 1673, 5-(5-(difluoromethyl)-1,3,4-oxadiazol-2-yl)-N-(1-(m-tolyl)cyclobutyl)pyrimidin-2-amine]
